Patent publication US10137181B2, “Isolated donor MHC-derived peptide and uses thereof” (INSERM (INSTITUT NATIONAL DE LA SANTÉ ET DE LA RECHERCHE …, priority 2014, dated 2018)

Columns and labels:
[1] = tested on: CD8^+CD40Ig Tregs; experiment: MLR coculture assay: CD8+CD40Ig Treg activation (CD25 expression) by donor MHC-derived peptides in the presence of syngeneic pDCs; format: cell-based, rat; details: 6 days culture, CpG-matured syngeneic pDCs; for activation of CD8+CD40Ig Tregs (CD25 upregulation), in words: individual peptide, derivatives compared with Bu31
Text: FIG. 1: Analysis of CD8+CD45RClow Tregs activation in response to donor-derived peptide stimulation. (A) CD8+ Tregs were cocultured for 6 days with syngeneic CpG-matured pDCs in the presence of peptides. For each experiment, the percentage of CD25 positive Tregs after 6 days of coculture with pDCs only, was given the value 1. Mean value 1 is equal to 32.85±1.98%. Results are expressed as the ratio±SEM between the percentage of CD25 positive cells after peptide stimulation and percentage of CD25 positive cells in the control condition without peptide. *p<0.05, **p<0.01 and ***p<0.001 versus control condition (value 1.0). n=4 to 18 for each peptide. (B) Analysis of Treg activation in response to Bu31 shorter peptide derivatives. On the left, 15 Bu31-derivatives are detailed and classified by aa sequence length, from 9 aa to 15 aa. The box highlights mismatched aa between the donor and recipient. On the right, Treg activation in response to Bu31-derivatives was analyzed by CD25 expression. CD8+ Tregs were cocultured for 6 days with syngeneic CpG-matured pDCs in the presence of each peptide. Bars represent the ratio between the percentage of CD25 positive cells after peptide stimulation and percentage of CD25 positive cells in the control condition without peptide. *p<0.05, **p<0.01 versus Bu31 condition. n=3 to 14 for each peptide.
(§1) Mixed lymphocyte reaction: For MLR coculture assays, pDCs from LEW.1A naive rats (1.25×10^4 cells), syngeneic CD8^+CD40Ig Tregs (5×10^4 cells) and 120 μg/ml of allogeneic peptides were plated in triplicate in 200 μl of complete RPMI-1640 medium in round-bottom 96 wells plates for 6 days at 37° C., 5% CO2. pDCs were matured with 0.5 μM of CpG ODN 1826.
(§2) Proliferation of CFSE-labeled naive CD4^+CD25^− T cells and phenotype of CD8^+CD45RC^low Tregs were analyzed by flow cytometry on a FACSCanto II cytometer (BD Biosciences) after gating on TCR^+CD4^+ cells or TCR^+CD8^+ cells among live cells (DAPI negative).
(§3) Extracellular and intracellular staining: For extracellular staining, cells were stained with the following mAbs: anti-TCRαβ (R73, Alexa Fluor 647-conjugated), anti-CD8α (OX8, PE-Cy7-conjugated, Ebiosciences), anti-CD4 (W3.25, PE-Cy7-conjugated), anti-CD45RC (OX22, FITC-conjugated), anti-CD28 (JJ319, biotin-labeled), anti-CD71 (OX26, biotin-labeled), anti-CD25 (OX39, biotin-labeled) and anti-MHC-II (OX6, biotin-labeled).
In the rat MHC-mismatched heart allograft model, donors (RT1^u) and recipients (RT1^a) are mismatched for all MHC molecules. We therefore aligned donor and recipient MHC I and II amino acids (aa) sequences and designed 82 overlapping 16-mer peptides matching the polymorphic domains of donor MHC I and II molecules (4-6). Peptides were first grouped into pools of 6 to 8 peptides (30 μg/ml of each peptide) and tested in an in vitro assay where immature or mature syngeneic recipient plasmacytoic dendritic cells (pDCs) and sorted-CD8^+CD40Ig Tregs from CD40Ig-treated long-term allograft bearing recipients were cocultured for 3 or 6 days. With immature pDCs, we observed no significant activation of CD8^+CD40Ig Tregs at day 3 or day 6 with any of the allogeneic pools of peptides. After stimulation with mature pDCs and pools of allogeneic peptides we observed at day 3 a slight upregulation of CD25 expression of a small population of CD8^+CD40Ig Tregs, and at day 6, a significant up-regulation of CD25 expression following allogeneic stimulation.

[2] = tested on: cardiac grafts; experiment: Morphometric analysis of cardiac grafts (chronic rejection); format: in vivo, rat; details: long-term surviving peptide-treated recipients
Protocol: Morphometric analysis of cardiac grafts: The upper third of the graft was fixed in paraformaldehyde and embedded in paraffin. Five μm coronal sections were stained with hematoxylin-eosine-safron. Tissues were analyzed by a pathologist blinded to the groups and chronic rejection was evaluated as previously described (16).

[3] = tested on: CD4^+CD25^− T cells; experiment: In vitro suppressive potential of CD8+CD45RClow Tregs from peptide-treated recipients; format: cell-based, rat; details: 6 days culture, donor LEW.1W pDCs, different effector:suppressor ratios
Protocol: FIG. 7. In vitro suppressive potential of CD8^+CD45RC^low Tregs from Bu31-treated recipients. The proliferation of naive CFSE-labeled LEW.1A CD4^+CD25^− T cells stimulated with donor LEW.1W pDCs was analyzed after 6 days of culture, in the presence of LEW.1A CD8^+CD45RC^low Tregs from naive or Bu31-treated recipients at different effector:suppressor ratio. The CD4^+CD25^− T cell proliferation alone was ˜80% and was given the value 100 in each experiment. Graphs represent the mean±SEM of relative CD4^+CD25^− T cell proliferation. *p<0.05.
For MLR suppressive assays, sorted CFSE-labeled CD4^+CD25^− T cells from LEW.1A origin (5×10^4 cells) and allogeneic pDCs isolated from donor LEW.1W animals (1.25×10^4 cells) were plated in triplicate for 6 days in a final volume of 200 μl of completed RPMI-1640 medium in round-bottom 96 wells plates with FACS-sorted freshly purified naive CD8^+CD45RC^low Treg cells or peptide-expanded CD8^+CD40Ig Treg cells (5×10^4 cells).
as §2

[4] = tested on: heart allograft, LEW.1W donors into LEW.1A recipients; experiment: Cardiac allograft survival after in vivo peptide infusion
Protocol: Recipients were either untreated (n=9) or treated with continuous infusion of peptide by i.p mini osmotic pumps (ALZET), delivering from day-7 and for 28 days, either 20.83 μg/hour alone (Bu31 0.5 mg/day: n=6) or 40.66 μg/hour in the LEW.1W/LEW.1A (Du51 1 mg/day: n=5) or combined with a depleting anti-CD8 mAb (OX8) (n=2) or BN/LEW.1A (Du51 1 mg/day (BN/1A): n=4) strains combination.
Animals and cardiac transplantation models: Allotransplantations of heart were performed between whole MHC incompatible LEW.1W (RT1.A^u as donors) and LEW.1A (RT1.A^a as recipients) male rats as previously described (1).
Peptides treatment in vivo: 16-mer peptides were dissolved in 0.4% DMSO/PBS before injection. […] In the second protocol, mini osmotic pumps (ALZET, Cupertino, Calif., USA) were implanted intraperitoneally (i.p) in recipients and delivered continuously either 20.83 or 41.66 μg/hour of 16-mer peptides for 14 days. A first pump was implanted on day −7 before transplantation and was replaced by a second one at day +7, allowing delivery of 14 or 28 mg of peptide per animal for 28 consecutive days. A depleting anti-CD8α mAb (OX8, IgG1, 3 mg/kg) was injected i.p. twice a week from day −7 until rejection. Allografts were monitored daily by palpation and allograft rejection was defined as complete cessation of palpable heart beat.

[5] = tested on: CD8^+CD40Ig Tregs; experiment: Cytokine ELISA in Treg/pDC coculture supernatants after peptide stimulation; format: cell-based, rat; details: 6 days peptide stimulation with pDCs
Protocol: (§4) FIG. 2: CD8+ Tregs phenotype following ex vivo allopeptide stimulation. (A) Tregs and syngeneic CpG-matured pDCs were cultured for 6 days, alone, with a control peptide or with peptide Bu31. Expression of indicated markers was analyzed on CD8+ Tregs in the culture supernatant by ELISA (A) or by flow cytometry (B) after in vitro stimulation. Graphs represent the mean±SEM. *p<0.05, **p<0.01, n=4 to 7.
as §1
Cytokine assays: IFNγ, IL-10 were measured in coculture supernatants using ELISA from BD Biosciences OptEIA, IL-12 and TGFβ using ELISA from Invitrogen and R&D System respectively.

[6] = tested on: CD8^+CD40Ig Tregs; experiment: Flow cytometry phenotype of CD8+ Tregs after ex vivo peptide stimulation; format: cell-based, rat; details: 6 days of peptide stimulation
Protocol: as §4, §1, §3
For intracellular staining, cells were then stained for Foxp3 (biotin-labeled, Ebiosciences) using BD cytofix/cytoperm kit (BD Biosciences) according to the manufacturer's instructions.
All biotinylated mAbs were visualized using Streptavidin-PerCP.Cy5.5 (BD Biosciences). A FACSCanto II cytofluorimeter (BD Biosciences) was used to measure fluorescence, and data were analyzed using FlowJo software (Tree Star, Inc. USA, version 7.6.5). Cells were first gated by their morphology and dead cells excluded by selecting DAPI negative viable cells.

[7] = tested on: CD4^+CD25^− T cells; experiment: MLR suppressive assay with peptide-stimulated CD8+CD40Ig Tregs; format: cell-based, rat; details: day 6, donor LEW.1W pDCs, 1:1 effector:suppressor, vs Tregs stimulated by a non-activating peptide
Protocol: FIG. 3: Bu31-activated Tregs maintained efficient suppressive activity. Fresh CD8+CD40Ig Tregs and syngeneic CpG-matured pDCs were cocultured for 6 days with either Bu31 or a control peptide. At day 6, Tregs were isolated by cell sorting (TCR+) and their regulatory function was analyzed by measuring their capacity to suppress MLR assay. The relative proportion of naive CFSE-labeled dividing LEW.1A CD4+CD25− T cells after stimulation with donor LEW.1W pDCs was analyzed at day 6 of culture, in the absence or presence of 6 days peptide-stimulated CD8+ Tregs at a 1:1 ratio effector:suppressor. Graphs represent the mean±SEM. *p<0.05 (left). Plots are representative of four independent experiments (right). […]
as §2
Here, we investigated whether Bu31-stimulated CD8^+CD40Ig Tregs could efficiently suppress effector T cell proliferation after 6 days coculture and thus maintained their suppressor activity, compared to CD8^+CD40Ig Tregs stimulated with a non-activating control peptide. […] To evaluate this, we measured the relative proportion of dividing CD4^+CD25^− T cells at day 6 of coculture (FIG. 3).

[8] = tested on: donor splenocytes; experiment: Donor specific alloantibody detection; format: in vivo, rat; details: long-term surviving treated recipients vs untreated rats, sera >120 days after transplantation
Protocol: FIG. 6: Anti-donor immune responses. Allo antibody production was evaluated in naive (n=3), grafted untreated (n=3) and long-term […] (n=4) animals. Sera were collected <30 days after rejection or >120 days after transplantation. Sera were incubated with donor splenocytes and analyzed by flow cytometry for IgG, IgG1 or IgG2b Abs production. Graph represents MFI±SEM.
Donor specific alloantibody detection: Alloantibodies were analyzed by cytofluorimetry as described elsewhere (14). Briefly, after digestion by collagenase D and red blood cell lysis, allogeneic spleen cells were incubated with diluted (⅛) heat-inactivated serum, and then with FITC-conjugated goat anti-rat IgG antibodies (H+L chain specific) (Jackson Laboratories), a mouse anti-rat IgG1 MAb (MCA 194, Serotec) or IgG2b (MCA 195, Serotec). […] Cells were analyzed using a FACS Canto II cytofluorimeter (BD Biosciences, Mountain View, Calif.) and the results were expressed as mean channel fluorescence for each serum.

## LRYDSDVGEYRAVTE (Synthetic 15-mer peptide 31-15)
[1]
  activation of CD8+CD40Ig Tregs (CD25 upregulation), in words: much stronger and significant CD25 upregulation

## SDVGEYRAVTELGR (Synthetic 14-mer peptide 31-14)
[1]
  activation of CD8+CD40Ig Tregs (CD25 upregulation), in words: much stronger and significant CD25 upregulation

## YLRYDSDVGEYR (Synthetic 12-mer peptide 31-10)
[1]
  activation of CD8+CD40Ig Tregs (CD25 upregulation), in words: much stronger and significant CD25 upregulation

## YLRYDSDVGEYRAV (Synthetic 14-mer peptide 31-13)
[1]
  activation of CD8+CD40Ig Tregs (CD25 upregulation), in words: much stronger and significant CD25 upregulation

## YLRYDSDVGEYRAVTE (Synthetic Subdominant peptide Bu31) [16-mer from the β1 chain of donor MHC class II RT1.B^u]
[2]
  signs of chronic rejection, anatomopathologic analysis of the graft: no signs of chronic rejection
[3]
  ex vivo suppressive activity of CD8+CD45RClow Tregs from treated recipients on effector CD4+ T cell proliferation: superior suppressive activity
[4]; 0.5 mg/day i.p. mini-osmotic pumps for 28 days from day -7, monotherapy
  prolongation of allograft survival: not sufficient to induce prolongation of allograft survival
[4]; 1 mg/day i.p. mini-osmotic pumps for 28 days from day -7, LEW.1W/LEW.1A
  indefinite allograft survival, share of recipients: 80%
[4]; peptide infusion 1 mg/day, BN/LEW.1A combination
  rejection of Brown Norway (BN) third party grafts, time after transplantation: 7 days
[5]
  IFNγ expression in culture supernatant: significant increased expression
  IL-10 expression in culture supernatant: no modification
  IL-12 expression in culture supernatant: no modification
  TGFβ expression in culture supernatant: no modification
[6]
  CD28 expression on CD8+ Tregs: upregulation
  CD71 expression on CD8+ Tregs: upregulation
  Foxp3 expression in CD8+ Tregs: no modification
  MHC class II expression on CD8+ Tregs: upregulation
[7]
  suppressive activity of peptide-stimulated Tregs: relative proportion of dividing CD4+CD25− effector T cells: maintained an efficient suppressive activity
[1]; individual 16-mer peptide, mean±SEM
  upregulation of CD25 expression at the cell surface of CD8+CD40Ig Tregs, ratio of % CD25 positive cells vs. no peptide: 1.67±0.09 fold
[8]
  IgG1 alloantibodies production: total inhibition
  IgG2b alloantibodies production: total inhibition
  total IgG alloantibodies production: total inhibition
